Tests used:
SA and SAG levels = assay: Endogenous SA and SAG levels in leaves of glycerol-treated plants; type: in vivo, Arabidopsis; conditions: for induction in SA levels / induction in the SAG levels: glycerol- versus water-treated, 50 mM glycerol
Description: (§1) SA and SA glucoside (SAG) are extracted and measured from 0.2-0.3 g of fresh weight leaf tissue, as described in Chandra-Shekara et al., 2004. FA analysis is carried out as described in Dahmer et al., 1989; and He et al., 2002. Lipids are extracted as described in Welti et al., 2002. Lipid profiles and acyl group identification are carried out using an automated electrospray ionization-tandem mass spectrometry facility available at the Kansas Lipidomics Center.
(§2) JA treatments are carried out as described in Kachroo et al., 2001.
(§3) Ethidium bromide staining of rRNA used as a loading control. FIG. 3(D) is a graph showing growth of P. parasitica biotype Emco5 on various plant genotypes listed at the left. The Landsberg (Ler) ecotype used as the resistant control. […] The shade of each box indicates the severity of infection, based on the number of sporangiophores per cotyledon (see key at the right). FIG. 3(E) is a plot showing glycerol-induced changes in the 18:1 levels in leaf tissue of 4-week-old plants.

PR-1 gene = conditions: exogenous application on wt plants; cited from earlier work
18:1 levels = assay: Leaf 18:1 content after glycerol application (GC); type: in vivo, Arabidopsis; conditions: wt and plants impaired in the SA signaling pathway, three days after glycerol application
Description: as §1, §2, §3

[1] = system: Peronospora parasitica biotype Emco5; conditions: glycerol-treated npr1 plants, glycerol 72 h prior to inoculation
PDF1.2 gene = PDF1.2 gene expression in response to JA (RNA gel blot); type: in vivo, Arabidopsis; conditions: ssi2 fad7 and ssi2 fad7 fad8 plants, 50 μM JA, 48 h post treatment
Description: Small-scale extraction of RNA from one or two leaves is performed in the TRIzol reagent (Invitrogen, Gaithersburg, Md.) following the manufacturer's instructions. Northern blot analysis and synthesis of random primed probes for PR-1, PR-2 and PDF1.2 are carried out as described in Kachroo et al., 2001.
as §2
FIGS. 5(A)-5(I) illustrate glycerol-mediated effects on mutants impaired in various fatty add desaturation (fad) steps and double mutant analysis of ssi2 in different fad backgrounds. […] RNA gel blot analysis was performed on […] of total RNA extracted from 4-week-old soil-grown plants. Ethidium bromide staining of rRNA was used as a loading control. […] The values presented are averages of three replicates. FIG. 5(D) is a plot showing glycerol-induced changes in the 18:1 levels in leaf tissue of four-week-old plants. The ssi2 gly1 and ssi2 act1 plants were used as controls. […] FIG. 5(F) comprises a series of microscopies of trypan blue-stained leaves from ssi2 and various ssi2 fad double- and triple-mutant plants. FIG. 5(G) illustrates expression of the PR-1 and PR-2 genes in wt, ssi2, and various ssi2 fad double and triple mutant plants. […] Samples were harvested 48 h post treatment and analyzed by RNA gel blot analysis performed on 7 μg of total RNA. […]

C. higginsianum [2] = assay: Anthracnose lesion development on Arabidopsis leaves infiltrated with G3P before infection; type: in vivo; conditions: infiltration of G3P into Arabidopsis leaves prior to infection
Description: (§4) Several lines of evidence point to G3P levels as being of primary importance. […] Secondly, the gli1 and gly1 plants, with lower levels of G3P, are slightly more susceptible to C. higginsianum.
Inoculation with Peronospora parasitica Emco5 is conducted as described in Kachroo et al., 2001. Inoculation with Colletotrichum higginssianum is carried out by spraying the spores at a concentration of […] and spot inoculating at a concentration of 104-105/ml. After inoculation, the plants are covered with a transparent plastic dome and kept in a growth chamber at 22° C., 65% relative humidity and 14 hour photoperiod. Infections are evaluated every day and scored for disease at 4-6 dpi. Inoculation with Pseudomonas syringae is conducted as described in Shah et al., 2001.

C. higginsianum [3] = assay: Growth of C. higginsianum in liquid Fries minimal medium; type: cell-based, Colletotrichum higginsianum; conditions: G3P added in minimal medium containing a preferred carbon source like sucrose or glycerol; 10 mM G3P, 5 days, 30° C.
Description: as §4

OCC(O)CO [glycerol]
induction in SA levels (SA and SAG levels; Columbia-O (Col-O) plants): 13 fold | induction in the SAG levels (SA and SAG levels; Columbia-O (Col-O) plants): 10 fold | induction in SA levels (SA and SAG levels; Nossen (No) plants): 10 fold | induction in the SAG levels (SA and SAG levels; Nossen (No) plants): 8 fold | SA levels upon glycerol treatment, lower than in wt plants (SA and SAG levels; fad7 and fad7 fad8 plants versus glycerol-treated wt): 3 fold | PR-1 gene expression (PR-1 gene): induction of PR-1 gene expression | leaf 18:1 levels (18:1 levels): drastic reduction in their 18:1 levels | reduction in the number of susceptible plants [1]: about 60%

CC/C=C\C[C@H]1C(=O)CC[C@@H]1CC(=O)O [JA, jasmonic acid]
PDF1.2 expression (PDF1.2 gene): basal level expression of PDF1.2

O=P(O)(O)OCC(O)CO (centres unmarked) [G3P, glycerol-3-phosphate]
necrosis triggered by the fungus at the site of entry (C. higginsianum [2]): significantly reduced necrosis | inhibition of fungal growth (C. higginsianum [3]): ~3 fold

Reference: patent US20070016978A1, “PLANTS HAVING AN ENHANCED RESISTANCE TO NECROTROPHIC PATHOGENS AND METHOD OF MAKING SAME” (priority 2005, published 2007)
